{
  "source": "patent US12473305B2",
  "about": "“Pyrazole boronic acid compound, pharmaceutical composition containing same, and uses thereof” (BEIJING SONGRUN PHARMACEUTICAL TECHNOLOGY CO., LTD., priority 2020, dated 2025)",
  "key": {"[1]": {"tested_on": "non-small cell lung cancer cell line A549", "experiment": "CellTiter-Glo tumor cell proliferation, A549", "assay_type": "cell-based, human", "conditions": "Homo sapiens, A549, 72 h, read-out: Inhibition rate A549 (%)", "experimental": "(§1) The effect of compounds on tumor cell proliferation was detected by CellTiter-Glo method. Human melanoma cell line A375, non-small cell lung cancer cell line A549, human lung adenocarcinoma cell line H1299, colorectal cancer cell line HCT116, liver cancer cell line HepG2 and gastric cancer cell line MGC80-3 were cultured in vitro. The cells were collected after growing to the logarithmic growth phase, centrifuged at 1000 rpm for 5 min, and suspended in an appropriate amount of medium after discarding the supernatant, and the cell concentration was adjusted to 2×10^4/mL. The cell suspension was inoculated onto the 384-well cell culture plate, with 50 μL per well. After being cultured in a cell incubator (37° C., 5% CO2) for 24 h, 5 μL of drug diluted by the cell culture medium was added into each well for the treatment group. Each drug was provided in triplicate. After 72 h incubation in the incubator, 20 μL of CellTiter-Glo was added into each well, and the relative luminescence unit (RLU) was measured with Multimode Microplate Reader Varioskan Flash (Thermo Scientific, USA) after placed at 37° C. for 20 min, and compared with the RLU of the control group. SigmaPlot 10.0 software was used to calculate the inhibition rate and IC50 value."}, "[2]": {"tested_on": "Human melanoma cell line A375", "experiment": "CellTiter-Glo tumor cell proliferation, A375", "assay_type": "cell-based", "conditions": "Homo sapiens, A-375, 72 h, read-out: Inhibition rate A375 (%)", "experimental": "as §1"}, "[3]": {"tested_on": "colorectal cancer cell line HCT116", "experiment": "CellTiter-Glo tumor cell proliferation, HCT116", "assay_type": "cell-based, human", "conditions": "72 h; for inhibition at 1 µM / inhibition at 10 µM: read-out: Inhibition rate HCT116 (%); for IC50: CellTiter-Glo", "experimental": "as §1"}},
  "note": "Where a name gives a salt, the structure may show the parent alone.",
  "data": [
    {"molecule": "CC(C)C[C@H](NC(=O)Cn1nc(-c2ccccc2OS(=O)(=O)c2ccc(C(F)(F)F)cc2)cc1-c1ccccc1)B(O)O", "note": "[Compound 2, (R)-(3-methyl-1-(2-(5-phenyl-3-(2-(((4-(trifluoromethyl)phenyl)sulfonyl)oxy)phenyl)-1H-pyrazol-1-yl)acetamido)butyl)boronic acid]", "values": [
      {"measurement": "inhibition at 1 µM", "setting": "[1]", "value": 15.1, "unit": "%"},
      {"measurement": "inhibition at 10 µM", "setting": "[1]", "value": 61.7, "unit": "%"},
      {"measurement": "inhibition at 1 µM", "setting": "[2]", "value": 8.6, "unit": "%"},
      {"measurement": "inhibition at 10 µM", "setting": "[2]", "value": 97.8, "unit": "%"},
      {"measurement": "inhibition at 1 µM", "setting": "[3]; Homo sapiens, HCT-116", "value": 1.4, "unit": "%"},
      {"measurement": "inhibition at 10 µM", "setting": "[3]; Homo sapiens, HCT-116", "value": 97.9, "unit": "%"}
    ]},
    {"molecule": "CC(C)C[C@H](NC(=O)Cn1nc(-c2ccccc2OS(=O)(=O)c2ccccc2C(F)(F)F)cc1-c1ccccc1)B(O)O", "note": "[Compound 3, (R)-(3-methyl-1-(2-(5-phenyl-3-(2-(((2-(trifluoromethyl)phenyl)sulfonyl)oxy)phenyl)-1H-pyrazol-1-yl)acetamido)butyl)boronic acid]", "values": [
      {"measurement": "inhibition at 1 µM", "setting": "[1]", "value": 17.1, "unit": "%"},
      {"measurement": "inhibition at 10 µM", "setting": "[1]", "value": 60.6, "unit": "%"},
      {"measurement": "inhibition at 1 µM", "setting": "[2]", "value": 5.7, "unit": "%"},
      {"measurement": "inhibition at 10 µM", "setting": "[2]", "value": 98.2, "unit": "%"},
      {"measurement": "inhibition at 1 µM", "setting": "[3]; Homo sapiens, HCT-116", "value": 3, "unit": "%"},
      {"measurement": "inhibition at 10 µM", "setting": "[3]; Homo sapiens, HCT-116", "value": 97.8, "unit": "%"}
    ]},
    {"molecule": "CC(C)C[C@H](NC(=O)Cn1nc(-c2ccccc2OS(=O)(=O)c2cccc(F)c2)cc1-c1ccccc1)B(O)O", "note": "[Compound 4, (R)-(1-(2-(3-(2-(((3-fluorophenyl)sulfonyl)oxy)phenyl)-5-phenyl-1H-pyrazol-1-yl)-acetamido)-3-methylbutyl)boronic acid]", "values": [
      {"measurement": "inhibition at 1 µM", "setting": "[1]", "value": 15, "unit": "%"},
      {"measurement": "inhibition at 10 µM", "setting": "[1]", "value": 69.3, "unit": "%"},
      {"measurement": "inhibition at 1 µM", "setting": "[2]", "value": 5.6, "unit": "%"},
      {"measurement": "inhibition at 10 µM", "setting": "[2]", "value": 98.2, "unit": "%"},
      {"measurement": "inhibition at 1 µM", "setting": "[3]; Homo sapiens, HCT-116", "value": 6.2, "unit": "%"},
      {"measurement": "inhibition at 10 µM", "setting": "[3]; Homo sapiens, HCT-116", "value": 97.6, "unit": "%"}
    ]},
    {"molecule": "CC(C)C[C@H](NC(=O)Cn1nc(-c2ccccc2OS(=O)(=O)c2cccc(Cl)c2)cc1-c1ccccc1)B(O)O", "note": "[Compound 5, (R)-(1-(2-(3-(2-(((3-chlorophenyl)sulfonyl)oxy)phenyl)-5-phenyl-1H-pyrazol-1-yl)-acetamido)-3-methylbutyl)boronic acid]", "values": [
      {"measurement": "inhibition at 1 µM", "setting": "[1]", "value": 10.2, "unit": "%"},
      {"measurement": "inhibition at 10 µM", "setting": "[1]", "value": 67.2, "unit": "%"},
      {"measurement": "inhibition at 1 µM", "setting": "[2]", "value": 2.2, "unit": "%"},
      {"measurement": "inhibition at 10 µM", "setting": "[2]", "value": 97.9, "unit": "%"},
      {"measurement": "inhibition at 1 µM", "setting": "[3]; Homo sapiens, HCT-116", "value": 9, "unit": "%"},
      {"measurement": "inhibition at 10 µM", "setting": "[3]; Homo sapiens, HCT-116", "value": 97.3, "unit": "%"}
    ]},
    {"molecule": "CC(C)C[C@H](NC(=O)Cn1nc(-c2ccccc2OS(=O)(=O)c2cccc(Br)c2)cc1-c1ccccc1)B(O)O", "note": "[Compound 6, (R)-(1-(2-(3-(2-(((3-bromophenyl)sulfonyl)oxy)phenyl)-5-phenyl-1H-pyrazol-1-yl)-acetamido)-3-methylbutyl)boronic acid]", "values": [
      {"measurement": "inhibition at 1 µM", "setting": "[1]", "value": 13.3, "unit": "%"},
      {"measurement": "inhibition at 10 µM", "setting": "[1]", "value": 64.7, "unit": "%"},
      {"measurement": "inhibition at 1 µM", "setting": "[2]", "value": 7, "unit": "%"},
      {"measurement": "inhibition at 10 µM", "setting": "[2]", "value": 95, "unit": "%"},
      {"measurement": "inhibition at 1 µM", "setting": "[3]; Homo sapiens, HCT-116", "value": 5.9, "unit": "%"},
      {"measurement": "inhibition at 10 µM", "setting": "[3]; Homo sapiens, HCT-116", "value": 97, "unit": "%"}
    ]},
    {"molecule": "CC(C)[C@H](NC(=O)CN1NC(C)(c2cccc(OCCN3CCCC3)c2)C=C1c1ccccc1)B(O)O", "note": "(stereo partly drawn) [Compound 33, (R)-(3-methyl-1-(2-(5-phenyl-3-(3-(2-(pyrrolidin-1-yl)ethoxy)phenyl)-1H-pyrazol-1-yl)acetamido)isobutyl)boronic acid hydrochloride]", "values": [
      {"measurement": "IC50", "setting": "[3]; Homo sapiens, HCT-116", "value": 925, "unit": "nM"}
    ]},
    {"molecule": "CC(C)[C@H](NC(=O)CN1NC(C)(c2cccc(OCCN3CCCCC3)c2)C=C1c1ccccc1)B(O)O", "note": "(stereo partly drawn) [Compound 34, (R)-(3-methyl-1-(2-(5-phenyl-3-(3-(2-(piperidin-1-yl)ethoxy)phenyl)-1H-pyrazol-1-yl)acetamido)isobutyl)boronic acid hydrochloride]", "values": [
      {"measurement": "IC50", "setting": "[3]; Homo sapiens, HCT-116", "value": 891, "unit": "nM"}
    ]},
    {"molecule": "CC(C)C[C@H](NC(=O)Cn1nc(-c2cccc(OCCN3CC(C)OC(C)C3)c2)cc1-c1ccccc1)B(O)O", "note": "(stereo partly drawn) [Compound 36, ((1R)-1-(2-(3-(3-(2-(2,6-dimethylmorpholino)ethoxy)phenyl)-5-phenyl-1H-pyrazol-1-yl)acetamido)-3-methylbutyl)boronic acid hydrochloride]", "values": [
      {"measurement": "IC50", "setting": "[3]; Homo sapiens, HCT-116", "value": 57, "unit": "nM"}
    ]},
    {"molecule": "(R)-(1-(2-(3-(N,N-diethylethoxy)phenyl)-5-phenyl-1H-pyrazol-1-yl)acetamido)isobutyl)boronic acid hydrochloride [Compound 32]", "values": [
      {"measurement": "IC50", "setting": "[3]", "value": 427, "unit": "nM"}
    ]},
    {"molecule": "(R)-(3-methyl-1-(2-(3-(3-(2-(4-methylpiperazin-1-yl)ethoxy)phenyl)phenyl)-5-phenyl-1H-pyrazol-1-yl)acetamido)butyl)boronic acid hydrochloride [Compound 35]", "values": [
      {"measurement": "IC50", "setting": "[3]", "value": 281, "unit": "nM"}
    ]}
  ]
}
